Data on 9 compounds can be found in patent US20090274676A1, “COMBINATION OF DEHYDROEPIANDROSTERONE OR DEHYDROEPIANDROSTERONE-SULFATE WITH A PDE-4 INHIBITOR FOR TREATMENT OF ASTHMA OR CHRONIC OBSTRUCTIVE PULMONARY DISEASE” (priority 2003, published 2009).

Where two headings read alike, the source gives them in different places.

One data set has as its system adenosine. The experiment in a line: In vivo effect on adenosine levels in rat tissues (HPLC of tissue adenosine). As to the method:
Folinic acid (50 mg/kg) was administered intraperitoneally once daily for fourteen days. […] Hearts were removed from animals and flash frozen in liquid nitrogen with 10 s of death. Liver and lungs were removed en bloc and flash frozen with 30 s of death. Brain tissue was subsequently dissected.

The subject of data set [1] is HT-29 SF cells. The experiment in a line: Reversal of DHEA effect on cell cycle (flow cytometry). The format is cell-based, human. The conditions noted are these: 25 μM DHEA, 48 hours.
In data set [2] the test system is HT-29 SF cells. The experiment in a line: Reversal of DHEA-mediated growth inhibition. The format is cell-based, human. To be noted: 25 μM DHEA, supplement in medium, 48 hours.
The subject of data set [3] is HT-29 SF cells. The experiment in a line: DHEA effect on cell cycle (flow cytometry). It is filed as cell-based, human. As to the method:
Cells were plated at 10^5/60-mm dish in duplicate. […] Cultures were trypsinized following 0, 24, 48, or 74 hours and fixed and stained using a modification of a procedure of Bauer et al., Cancer Res. 46, 3173-3178 (1986). Briefly, cells were collected by centrifugation and resuspended in cold phosphate-buffered saline. Cells were fixed in 70% ethanol, washed, and resuspended in phosphate-buffered saline.
After 24, 48, and 72 hours, cells were harvested, fixed in ethanol, and stained with propidium iodide, and the DNA content/cell was determined by flow cytometric analysis. The percentage of cells in G1, S, and G2M phases was calculated using the Cellfit cell cycle analysis program. S phase is marked by a quadrangle for clarity. Representative histograms from duplicate determinations are shown. The experiment was repeated three times.
Background: A flow cytometer gives signals particle by particle.

A further data set is described as follows: Solubility of DHEA-S. It is filed as physicochemical. To be noted: for Solubility: range of triplicates. The text has this:
Inhalation of pure water can produce a cough stimulus. […] The temperature effect is weaker at high NaCl concentrations.

The test system of data set [4] is HT-29 SF cells. The data set is described as follows: DHEA effect on cell growth (Coulter counter). The format is cell-based, human. To be noted: 12.5-200 μM, 24-72 hours.
Data set [5] can be described thus: Physicochemical testing of DHEA-S dihydrate before and after micronization. The conditions noted are these: for Water (% w/w): Karl Fischer. As to the method:
Surface area is determined using five point BET analyses are performed with nitrogen as the adsorbing gas (P/Po=0.05 to 0.30) using a Micromeritics TriStar surface area analyzer. Particle size distributions are measured by laser diffraction using a Micromeritics Saturn Digisizer where the particles are suspended in mineral oil with sodium dioctyl sodium sulfosuccinate as a dispersing agent. Drug substance water content is measured by Karl Fischer titration (Schott Titroline KF). Pure water is used as the standard and all relative standard deviations for triplicates are less than 1%. Powder is added directly to the titration media.

Data set [6] in a line: Solid-state stability with and without lactose at 50° C. (HPLC, DHEA formation). It is filed as physicochemical. An excerpt: These conditions were used to stress the formulation in order to predict its long-term stability results. […] The primary degradant is DHEA. […] The materials on accelerated storage become more cohesive with time as evidenced by clumping during sample weighing for chemical analysis. […] This is a considerable disadvantage since lactose is the most commonly used inhalation excipient for dry powder formulations. Continuing with the virtually anhydrous form would mean limiting formulations to neat powder or undertaking more comprehensive safety studies to use a novel excipient.

The nature of data set [7]: Aerosolization of neat DHEA-S dihydrate, Acu-Breathe single-dose inhaler, fine particle fraction. It is filed as physicochemical. The conditions noted are these: neat powder, Acu-Breathe, 30 to 75 L/min, all flow rates. An excerpt:
The single-dose Acu-Breathe device is used for evaluating DHEA-S.dihydrate. […] These blisters are actuated into the Andersen 8-stage cascade impactor at flow rates ranging from 30 to 75 L/min with a glass twin-impinger throat. Stages 1-5 of the Andersen impactor are rinsed together to obtain an estimate of the fine particle fraction. Pooling the drug collected from multiple stages into one assay make the method much more sensitive. […] Using a carrier with a larger particle size typically improves the aerosol properties of micronized drug substances.

Data set [8] can be described thus: Short-term solution stability of DHEA-S nebulizer formulation. It is filed as physicochemical. The conditions noted are these: for Appearance of solution on storage: 10 mg/mL in 0.12% NaCl. As to the method:
Aliquots of this solution are filled into clear glass vials and stored at RT (24-26° C.) and at 40° C. The samples are checked daily for DHEA-S content, DHEA content, and appearance. For each time point, duplicate samples are withdrawn and diluted from each vial. […] The study is stopped on day three. […] The solution should easily be stable for the day of reconstitution in a clinical trial. The following section describes the aerosol properties of this formulation.

Data set [9] in a line: HPLC analysis of drug degradation during jet milling. It is filed as physicochemical. The conditions noted are these: HPLC peak area vs unmilled standard. As to the method:
Two vials (A; single-pass; 150 mg) and (B double-pass; 600 mg) of the micronized drug were available for determining drug degradation during jet milling micronization. […] The chromatographic peak area for the HPLC assay of the unmilled drug standard solution (10 mg/ml) gave a value of 23,427. […] The chromatographic peak areas for vials A and B were 11,979 and 11,677, respectively.

For a further data set, the system named is asthma. To be noted: 657 patients with asthma, cited from earlier work.
[10] abbreviates: Folinic Acid 50 mg/kg intraperitoneally once daily 14 days, mean±SEM.

For `Nc1nc(=O)c2c([nH]1)NCC(CNc1ccc(C(=O)N[C@@H](CCC(=O)O)C(=O)O)cc1)N2C=O` (mixture of isomers) [Folinic Acid, Folinic acid], in the data set on adenosine (setting [10]), the “Intracellular adenosine, Brain” value is given as 0.72 ± 0.09 nmols/mg protein; the “Intracellular adenosine, Heart” value was 12.4 ± 2.1 nmols/mg protein; the “Intracellular adenosine, Liver” value is recorded as 16.4 ± 2.4 nmols/mg protein. The “Effect on adenosine levels when administered alone” value in the data set with adenosine (all organs studied) was “increase in adenosine levels”. Besides, in the data set on adenosine (coadministered with DHEA or methyltestosterone), the “Effect of coadministration on steroid-mediated adenosine depletion” value was “completely abrogated”.

Turning to `CC(C)CCC[C@@H](C)[C@H]1CC[C@H]2[C@@H]3CC=C4C[C@@H](O)CC[C@]4(C)[C@H]3CC[C@]12C` [CH, cholesterol], the “Prevention of DHEA-induced S phase depletion” value in the data set on HT-29 SF cells [1] is recorded as “very little effect”. Moreover, the “Reversal of DHEA-induced growth inhibition” value in the data set with HT-29 SF cells [2] was “no such effect”.

For `C[C@]12CC[C@H](O)CC1=CC[C@@H]1[C@@H]2CC[C@]2(C)C(=O)CC[C@@H]12` [DHEA, 3β-hydroxyandrost-5-en-17-one], in the data set with HT-29 SF cells [3] (200 μM, after 24 hours), the “Percentage of cells in G1 / S phase” value was “more rapid increase in the percentage of cells in G1 and a decreased proportion of cells in S phase”. For the same compound, in the data set on HT-29 SF cells [3] (25 or 50 μM, after 48 hours), the G2M phase cells entry is “transient increase”. In addition, in the data set on HT-29 SF cells [3] (25 or 50 μM, after 72 hours), the “Percentage of cells in G1 phase” value is listed as “increased”. In addition, the Cell cycle distribution entry with HT-29 SF cells [3] (25 or 50 μM, after the initial 24 hours) is “unchanged”. For the same compound, in the data set on HT-29 SF cells [3] (time- and dose-dependent), the “Overall effect on cell cycle” value was “G1 block”. Also, the Solubility in water entry in “Solubility of DHEA-S” (water) was “insoluble in water”. Besides, the “Effect on growth of HT-29 cells” value in the data set on HT-29 SF cells [4] is “time- and dose-dependent inhibition of growth”.

For the compound `CC12CCC3C(CC=C4CC(OS(=O)(=O)[O-])CCC43C)C1CCC2=O.[Na+]` (stereo not drawn) [DHEA-S Dihydrate], the “Particle size (D50%)” value in [5] (Bulk) amounted to 31 microns; in data set [5] (Micronized), 3.7 microns. Also, the figures for the “Water (% w/w)” value in data set [5] (Bulk) and in data set [5] (Micronized) were 8.5 % w/w and 8.4 % w/w, respectively. The “Surface area (m^2/g)” value in data set [5] (Micronized, five point BET) was found to be 4.9 m^2/g. Besides, in [6] (1 week at 50° C.), the Colour after storage entry is on record as “no change in color”. Besides, the DHEA % formed in data set [6] (50° C., 1 week) was found to be 0.216%; in [6] (50° C., 3 weeks) it was 0.317%; in [6] (50° C., 4 weeks), 0.374%; in data set [6] (Control, initial (Time=0)) it was 0.213%; in data set [6] (Control, sealed, 25° C., 4 weeks) it was 0.218%. Further, the “Water content, starting value” in [6] (before storage) stood at 8.8%. Also, the “Water content after accelerated storage” value in data set [6] (one week at 50° C.) is recorded as 8.66%. Moreover, in [7], the “Fine particle fraction compared with virtually anhydrous material” value was “higher fine particle fraction”.

Take `C[C@]12CC[C@H](OS(=O)(=O)[O-])CC1=CC[C@@H]1[C@@H]2CC[C@]2(C)C(=O)CC[C@@H]12.[Na+]` [DHEA-S, sodium dehydroepiandrostenone sulfate]: the “Stability of nebulizer formulation” value in [8] (7.5 mg/mL in 0.12% NaCl, RT) is recorded as “stable for at least one day”. Moreover, the “Appearance of solution on storage” value in data set [8] (40° C.) was “became cloudy after two days of storage”; in data set [8] (RT (24-26° C.)), “slight precipitate is observed on the third day”. The Solubility (in general, the concentration that dissolves in the medium under given conditions) was in the range of 1100 to 1300 µg/mL in the data set “Solubility of DHEA-S” (0.9% NaCl, refrigerated (7-8° C.)) and 16500 to 17400 µg/mL in the data set “Solubility of DHEA-S” (~25° C., 0% NaCl). In the data set “Solubility of DHEA-S” (15° C., interpolated), this compound returned a Ksp of about 1316 mM^2. The Solubility in hexane result in the data set “Solubility of DHEA-S” (hexane) was “insoluble”. In addition, the “Equilibrium constant Ksp” value amounted to 665 mM^2 in “Solubility of DHEA-S” (refrigerated (7-8° C.)) and 2236 mM^2 in “Solubility of DHEA-S” (room temperature (24-25° C.)). Further, the “Degradation of the drug during jet milling micronization” value in [9] was “no detectable degradation”.

Regarding `C[C@@](O)(CCO)CC(=O)O` [MVA, mevalonic acid], in the data set on HT-29 SF cells [1], the “Prevention of DHEA-induced S phase depletion” value was “partially prevented”. Moreover, in the data set on HT-29 SF cells [2], the “Reversal of DHEA-induced growth inhibition” value is “partially overcome”.

As to `C[C@]12CCC(=O)C=C1CC[C@@H]1[C@@H]2CC[C@@]2(C)[C@H]1CC[C@]2(C)O` [Methyltestosterone, methyltestosterone], the “Intracellular adenosine, Liver” value in the data set with adenosine (Methyltestosterone 40 mg/kg, mean±SEM) is 16.5 ± 0.9 nmols/mg protein; in the data set with adenosine (Methyltestosterone 120 mg/kg, mean±SEM) it was 5.1 ± 0.5 nmols/mg protein.

For the compound `O=C(Nc1c(Cl)cncc1Cl)c1ccc(OC(F)F)c(OCC2CC2)c1` [Roflumilast], the “Reduction of number of exacerbations compared to placebo” value in the data set on asthma (higher dose) was 48%; with asthma (lower dose) it was 8%.

As to `CC(C)=CCC/C(C)=C/CC/C(C)=C/CC/C=C(\C)CC/C=C(\C)CCC=C(C)C` [SQ, squalene], the “Reversal of DHEA-induced growth inhibition” value with HT-29 SF cells [2] is recorded as “no such effect”.
